Test results as given in patent publication US10610522B2, “Methods for retreating irritable bowel syndrome (IBS)” (Salix Pharmaceuticals, Inc., priority 2014, dated 2020).

How the values were obtained:
rat fetuses = experiment: Developmental toxicity in pregnant rats; format: in vivo
IBS-D = experiment: TARGET 3: repeat treatment with rifaximin 550 mg TID in IBS-D (open-label, double-blind first and second repeat treatment); format: in vivo, human
Description: This study consists of several treatment phases, and is initiated with a placebo run-in treatment during the Screening/Treatment 1 Phase. The placebo run-in is included in the design to disqualify subjects from enrollment if they no longer meet IBS symptom related entry criteria at the end of the Screening/Treatment 1 Phase (e.g., spontaneous improvement). […] Subjects who achieve treatment success in both IBS-related abdominal pain and stool consistency during at least two of the four week follow-up period are classified as responders and enter a treatment free Maintenance Phase 1. Non-responders are withdrawn from the study to provide an enriched population of subjects who respond to treatment with rifaximin. The treatment free Maintenance Phase 1 is variable in time (up to 18 weeks in total) and depends upon recurrence (e.g., absence of treatment success in both IBS related abdominal pain or stool consistency).
The subjects remain blinded to placebo received during Treatment 1. Subjects with recurrence enter the DBR Treatment 3 Phase.
Subjects are considered to have met recurrence criteria or have “relapsed” when they experience the recurrence of abdominal pain OR stool consistency for at least 3 weeks during a 4-week follow-up period. […] Therefore a recurrence of both symptoms is not required to define a “relapse”.
The study was a multi-center, randomized, double-blind, placebo-controlled trial in adult subjects with non-C IBS. The study duration was up to 51 weeks, with approximately 600 patients.
The Treatment 1 or Screening phase is the 7-13 days prior to study Day 1.
The proportion of subjects who were responders to repeat treatment in both IBS-related abdominal pain and stool consistency were evaluated during the 4 week treatment-free follow-up (Primary Evaluation Period, PEP) in the DBR (Double Blind Repeat) of the Treatment 3 Phase.
In this analysis, when a weekly response was absent for either the abdominal pain or stool consistency component for at least 3 weeks during a rolling consecutive 4-week assessment period; the subject is considered to have recurrence.
Further, the proportion of subjects who were responders to repeat treatment in both IBS-related abdominal pain and stool consistency during the PEP in the DBR Treatment 3 Phase and that had no recurrence through the end of Maintenance Phase 2 were assessed.
Further, the proportion of subjects were assessed who were responders to repeat treatment for IBS-related bloating during the PEP in the DBR Treatment 3 Phase.
The intent-to-treat (ITT) population included subjects who were randomized and received at least one dose of the study drug in the Treatment 3/DBR Treatment Phase. These subjects served as the primary analysis population. An efficacy analysis was conducted on the ITT population.
Double-Blind Phase of the Study (Response type—durable and maintained): Proportion that responded to the composite FDA Endpoint of relief in both IBS-related Abdominal Pain AND Stool Consistency during the PEP in the first repeat double-blind, placebo controlled treatment phase AND continued to respond without recurrence through the end of Week 6 following the second repeat double-blind, placebo controlled treatment.
Double-Blind Repeat Treatment and follow-up (Response type—durable): Proportion that responded to the composite FDA Endpoint of relief in both IBS-related Abdominal Pain AND Stool Consistency during the PEP in the first repeat double-blind, placebo controlled treatment phase AND continued to respond without recurrence through the end of Week 12, independent of any additional treatment.
At the end of Week 6, patients were assessed for response to treatment. […]

[1] = TARGET 3, month following repeat treatment, Worst-Case Analysis, 550 mg TID, N = 328

CO[C@H]1/C=C/O[C@@]2(C)Oc3c(C)c(O)c4c(O)c(c5c(nc6cc(C)ccn65)c4c3C2=O)NC(=O)/C(C)=C\C=C\[C@H](C)[C@H](O)[C@@H](C)[C@@H](O)[C@@H](C)[C@H](OC(C)=O)[C@@H]1C [Rifaximin, (2S,16Z,18E,20S,21S,22R,23R,24R,25S,26S,27S,28E)-5,6,21,23,25 Pentahydroxy-27-methoxy-2,4,11,16,20,22,24,26-octamethyl-2,7-(epoxypentadeca-(1,11,13)trienimino) benzofuro (4,5-e) pyrido(1,2-a) benzimidazole-1,15(2H)-dione,25-acetate]
Fetal malformations (rat fetuses; pregnant rats, dose levels that caused reduced body weight gain): eye malformations
Post-natal developmental effects in rat pups (rat fetuses; pregnant/lactating rats dosed from gestation to Day 20 post-partum, highest dose): not observed
Median time to recurrence of IBS-related symptoms after initial 14-day treatment (IBS-D; TARGET 3): 8 weeks
Patients who responded to initial open-label treatment (abdominal pain and/or stool consistency) (IBS-D; TARGET 3, 550 mg TID 14 d, 1074 of 2579 patients): 41.6%
Monthly responders for abdominal pain and stool consistency after first repeat treatment (IBS-D; TARGET 3, 4 weeks following first repeat treatment, 550 mg TID): 33%
Abdominal Pain Responders: % (IBS-D; [1]): (51) %
Abdominal Pain Responders: n (IBS-D; [1]): 166
Abdominal Pain and Stool Consistency Responders: % (IBS-D; [1]): (33) %
Abdominal Pain and Stool Consistency Responders: n (IBS-D; [1]): 107
Stool Consistency Responders: % (IBS-D; [1]): (42) %
Stool Consistency Responders: n (IBS-D; [1]): 138
Sustained response for abdominal pain and stool consistency (IBS-D; TARGET 3, no recurrence 10 weeks after repeat treatment): 17%
Prevention of recurrence of abdominal pain and stool consistency responders (IBS-D; TARGET 3, no recurrence through second repeat treatment phase (20 weeks)): 13%
Responders without recurrence of abdominal pain or stool consistency symptoms for 22 weeks following initial treatment (IBS-D; TARGET 3, number of patients): 382
IBS-Related Abdominal Pain Responders (IBS-D; Weeks 3 through 6, Second Repeat Treatment Phase, LOCF Analysis): (52.5%)
IBS-Related Abdominal Pain and Stool Consistency Responders (IBS-D; Weeks 3 to 6, Double Blind First Repeat Treatment Phase, LOCF Analysis, ITT): 116/328
Adverse reaction: ALT increased (IBS-D; during repeat treatment): 2%
Adverse reaction: nausea (IBS-D; during repeat treatment): 2%
Adverse event rate of repeat treatments (IBS-D; repeat treatments 550 mg TID): generally below that of placebo
Effects on pathogen emergence, pathogen susceptibility, microbial population in stool or skin swab samples (IBS-D; up to 3 treatment cycles): no evidence of significant effects
